Results taken from patent US20220274997A1, “PIM KINASE INHIBITOR COMPOSITIONS AND USES THEREOF” (Snap Bio, Inc., priority 2019, published 2022).

Assays:
PIM1 [1] = target: T1, PIM1 (Homo sapiens, UniProt P11309); assay: Biochemical radiolabeled ATP kinase assay (Reaction Biology), PIM1; details: 10 μM ATP
T1 construct: purchased ProQinase, Freiburg, Germany 0186-0000-1
Excerpt: The second assay used was Perkin Elmer's LANCE® Ultra kinase assay which uses a ULight™-labeled peptide substrate and an appropriate Europium-labeled anti-phospho antibody. When the substrate becomes phosphorylated by a kinase of interest, the phosphorylated site on the substrate is recognized by the Europium-labeled anti-phospho antibody. […] The intensity of light emission is proportional to the level of ULight peptide phosphorylation. A kinase inhibitor reduces the FRET signal, thus providing an accurate and sensitive measure of inhibition potency. […]
The standard protocol used for PIM3 was performed by Reaction Biology Corporation (Malvern, Pa.) using a capture assay performed in 20 mM HEPES at pH 7.5 containing 10 mM MgCl2, 10 mM MnCl2, 1 mM EGTA, 0.02% Brij35, 0.02 mg/mL BSA, 0.1 mM Na3VO4, 2 mM DTT, 0.02% Brij35, 10 μM ATP, and 20 μM peptide substrate […]. […] The bound ^33P-peptide substrate was quantified by scintillation counting and the disintegrations per minute (dpm) obtained, being directly proportional to the amount of ^33P-peptide produced by PIM3, were used to determine the IC50 for each compound. […]
(§1) The inhibitory activity of each compound against PIM kinases was measured with the radioisotope filter binding assay, a type of substrate phosphorylation assays, available at Reaction Biology Corporation (Mavern, Pa.).

PIM3 [2] = target: T2, PIM3 (Homo sapiens, UniProt Q86V86); assay: Biochemical radiolabeled ATP kinase assay (Reaction Biology), PIM3; details: for IC50: 10 μM ATP
T2 construct: purchased SignalChem, Richmond, Canada P37-10BG
Excerpt: (§2) The second assay used was Perkin Elmer's LANCE® Ultra kinase assay which uses a ULight™-labeled peptide substrate and an appropriate Europium-labeled anti-phospho antibody. When the substrate becomes phosphorylated by a kinase of interest, the phosphorylated site on the substrate is recognized by the Europium-labeled anti-phospho antibody. […] The intensity of light emission is proportional to the level of ULight peptide phosphorylation. A kinase inhibitor reduces the FRET signal, thus providing an accurate and sensitive measure of inhibition potency.
The basic biochemical assay employs radiolabeled ATP to measure the kinase-catalyzed transfer of radioactive phosphorus to a tyrosine-containing peptide substrate, according to the general equation: […]
Reaction: Substrate+[γ-^33P]−ATP→^33P-Substrate+ADP
The standard protocol used for PIM3 was performed by Reaction Biology Corporation (Malvern, Pa.) using a capture assay performed in 20 mM HEPES at pH 7.5 containing 10 mM MgCl2, 10 mM MnCl2, 1 mM EGTA, 0.02% Brij35, 0.02 mg/mL BSA, 0.1 mM Na3VO4, 2 mM DTT, 0.02% Brij35, 10 μM ATP, and 20 μM peptide substrate […]. […] Reagents were combined and incubation at 30° C. for 30 min, the reaction was initiated by adding [γ-^33P]-ATP (10 ρCi/mL [γ-^33P]-ATP) and incubated for 2 h at 30° C. The reaction was then terminated by the addition of one-third volume of stop reagent (0.25 mM EDTA and 33 mM ATP in dH20). A […] aliquot was removed, spotted onto a P-81 filternat ion exchange paper and washed sequentially with 10% (w/v) chloroacetic acid and dH20 to remove ATP. The bound ^33P-peptide substrate was quantified by scintillation counting and the disintegrations per minute (dpm) obtained, being directly proportional to the amount of ^33P-peptide produced by PIM3, were used to determine the IC50 for each compound. […]
as §1

PIM1 [3] = target: T1, PIM1; assay: LANCE Ultra kinase assay, PIM1; format: biochemical
Excerpt: as §2
(§3) The assay was performed in 384-well plates in two steps: PIM kinases were mixed with the ULight-substrate (CREBtide) in buffer and incubated for 10 min. Subsequently, ATP and molecules of the present disclosure were added in a kinase buffer at the appropriate concentration and the reactions were incubated for 1 hour, at room temperature in the dark. • After 1 h EDTA was added to stop the kinase reaction, Eu-W1024-labeled anti-phosphoserine-CREB (Ser133) Antibody (anti-phosphoCREBtide specific antibody) was added to the reaction in LANCE Detection buffer. The mixture was allowed to incubate for 30 min to allow binding of the antibody to the phosphorylated site before the plate was read using a Tecan microplate reader
(§4) Kinase Assay Buffer—50 mM HEPES pH7.0.1 mM EGTA, 10 mM MgCl2, 0.01% BRU-35.
(§5) The inhibitory activity of each compound against PIM kinases was measured with the LANCE® Ultra Kinase Assays by ChemDiv, Inc. (San Diego, Calif.).

PIM2 = target: T3, PIM2 (Homo sapiens, UniProt Q9P1W9); assay: LANCE Ultra kinase assay, PIM2; format: biochemical
T3 construct: purchased ProQinase, Freiburg, Germany 0223-0000-1
Excerpt: as §2, §3, §4, §5

PIM3 [4] = target: T2, PIM3; assay: LANCE Ultra kinase assay, PIM3; format: biochemical; details: LANCE assay
Excerpt: as §2, §3, §4, §5

HepG2 = assay: CellTiter-Glo cancer cell growth inhibition, HepG2; format: cell-based, human; details: Homo sapiens, HepG2, 72 h
Excerpt: (§6) The CellTiter-Glo® Luminescent Cell Viability Assay is a sensitive homogeneous method to determine the number of viable cells in culture, Detection is based on using the luciferase reaction to measure the amount of ATP from viable cells. The amount of ATP in cells correlates with cell viability. Within minutes after a loss of membrane integrity, cells lose the ability to synthesize ATP, and endogenous ATPases destroy any remaining ATP; thus the levels of ATP fall precipitously. The CellTiter-Glo® Reagent does three things upon addition to cells. It lyses cell membranes to release ATP; it inhibits endogenous ATPases, and it provides luciferin, luciferase and other reagents necessary to measure ATP using a bioluminescent reaction. The unique properties of a proprietary stable luciferase.
(§7) All assays were performed by Reaction Biology Corporation (Malvern, Pa.) or ChemDiv, Inc. (San Diego, Calif.). All cell lines were purchased from American Type Culture Collection (ATCC, Manassas, Va.), except Huh 7 (RIKEN, Toyo, Japan) and HepaRG (Life Technologies, Carlsbad, Calif.).
(§8) Stock solutions ([…]) were diluted with cell culture media to produce 500× serial dilutions and […] of final compound dilutions were added to cells in assay plates to screen a series of 10 doses starting at […]. Final DMSO concentration was 0.2%. Assay plates are centrifuged at 100 rpm, 1 minute and kept at 37° C., 5% CO2, humidified atmosphere. […] Luminescence intensity was measured for each well using the Tecan M 1000 microplate reader after 5 min of incubation with CellTiter-Glo Reagent. The number of viable cells in culture was determined based on quantitation of the ATP present in each culture well. […] The EC50 curves were plotted and […] values were calculated using the GraphPad Prism 4 program based on a sigmoidal dose-response equation.

Huh7 = assay: CellTiter-Glo cancer cell growth inhibition, Huh7; format: cell-based; details: Homo sapiens, Huh-7, 72 h
Excerpt: as §6, §7, §8

HepaRG = assay: CellTiter-Glo cancer cell growth inhibition, HepaRG; format: cell-based; details: Homo sapiens, 72 h
Excerpt: as §6, §7, §8

A673 = assay: CellTiter-Glo cancer cell growth inhibition, A673; format: cell-based; details: Homo sapiens, A673, 72 h
Excerpt: as §6, §7, §8

T1 sequence (P11309 whole entry): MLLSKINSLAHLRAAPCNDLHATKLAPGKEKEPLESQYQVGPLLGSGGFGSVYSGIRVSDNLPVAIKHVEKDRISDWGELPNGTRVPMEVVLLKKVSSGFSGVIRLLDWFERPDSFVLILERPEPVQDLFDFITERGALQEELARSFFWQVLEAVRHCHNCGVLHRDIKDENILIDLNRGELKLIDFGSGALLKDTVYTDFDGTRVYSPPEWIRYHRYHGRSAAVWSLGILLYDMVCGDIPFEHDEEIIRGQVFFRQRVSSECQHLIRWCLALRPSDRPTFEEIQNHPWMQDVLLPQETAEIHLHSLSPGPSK
T3 sequence (Q9P1W9 whole entry): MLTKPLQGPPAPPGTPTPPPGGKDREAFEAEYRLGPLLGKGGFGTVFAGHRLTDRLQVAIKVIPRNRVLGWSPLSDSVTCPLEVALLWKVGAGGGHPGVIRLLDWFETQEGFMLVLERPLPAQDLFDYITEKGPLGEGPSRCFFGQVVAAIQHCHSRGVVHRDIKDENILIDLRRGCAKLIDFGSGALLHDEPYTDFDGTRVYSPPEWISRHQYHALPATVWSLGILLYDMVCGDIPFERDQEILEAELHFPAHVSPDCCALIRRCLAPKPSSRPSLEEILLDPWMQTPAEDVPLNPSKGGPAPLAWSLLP

Row | Compound | IC50 (PIM1 [1]) [nM] | IC50 (PIM3 [2]) [nM] | IC50 (PIM1 [3]; ATP 0.1 mM) [nM] | IC50 (PIM1 [3]; ATP 1 mM) [nM] | IC50 (PIM2; ATP 0.1 mM) [nM] | IC50 (PIM2; ATP 1 mM) [nM] | IC50 (PIM3 [4]; ATP 0.1 mM) [nM] | IC50 (PIM3 [4]; ATP 1 mM) [nM] | EC50 (HepG2) [nM] | EC50 (Huh7) [nM] | EC50 (HepaRG) [nM] | EC50 (A673) [nM] | Selectivity among PIM1-3 (IC50 plots, FIGS. 1A-1C) (PIM3 [2])
1 | O=C1NC(=O)c2c1c1c3ccccc3[nH]c1c1c2c2cc(F)c(O)cc2n1CCN1CCOCC1 [Compound 19, 3-fluoro-2-hydroxy-13-(2-morpholin-4-ylethyl)-12,13-dihydro-5H-indolo[2,3-a]pyrrolo[3,4-c]carbazole-5,7(6H)-dione] | 0.98 | 0.2 | 0.23 | 0.82 | 3.2 | 4.9 | 1 | 4.3 | 34 | 80 | 48 | 10 | –
2 | O=C1NC(=O)c2c1c1c3cc(F)c(O)cc3[nH]c1c1c2c2ccccc2n1CCN1CCOCC1 [Compound 18, 3-fluoro-2-hydroxy-12-(2-morpholin-4-ylethyl)-12,13-dihydro-5H-indolo[2,3-a]pyrrolo[3,4-c]carbazole-5,7(6H)-dione] | 1.8 | 0.25 | – | 1.7 | – | 41 | – | 9.5 | 76 | 41 | – | – | PIM3 selectivity
